The nature of assay [1]: Inhibition of wild-type HIV1 3B reverse transcriptase infected in human MT4 cells assessed as protection against virus-induced cytopathic effect.
A short description of assay [2]: Inhibition of HIV1 RES056 reverse transcriptase K103N/Y181C double mutant infected in human MT4 cells assessed as protection against virus-induced cytopathic effect.
Assay [3] in a line: Inhibition of wild-type HIV1 3B reverse transcriptase infected in human MT4 cells assessed as protection against virus-induced cytopathic effect measured 5 days post infection by MTT assay.
Assay [4] can be described thus: Inhibition of HIV1 reverse transcriptase K103N mutant infected in human MT4 cells assessed as protection against virus-induced cytopathic effect measured 5 days post infection by MTT assay.
A short description of assay [5]: Inhibition of HIV1 reverse transcriptase E138K mutant infected in human MT4 cells assessed as protection against virus-induced cytopathic effect measured 5 days post infection by MTT assay.
The nature of assay [6]: Inhibition of HIV1 reverse transcriptase K103N/Y188C double mutant infected in human MT4 cells assessed as protection against virus-induced cytopathic effect measured 5 days post infection by MTT assay.

As for `Cc1cc(C(C#N)c2ccccc2F)nc(Nc2ccc(C#N)cc2)n1` (stereo unspecified), the values for the EC50 in assay [1] and in assay [2] were 1.8 nM and over 217 nM, respectively.
As to `Cc1cc(C#Cc2cccnc2)cc(C)c1Oc1ccnc(Nc2ccc(C#N)cc2)n1`, the EC50 in assay [3] is 3 nM; in assay [4], 10 nM; in assay [5], 22 nM; in assay [6] it was 935 nM.

For the origin of these results see BindingDB's records for doi:10.1016/j.ejmech.2018.09.013 (Wuhan Institute of Technology, 2018).
